Patent publication US20210345614A1, “APPLICATION OF 7-CARBOXYBENZO[1,2,3]THIADIAZOLE AMIDES AS PLANT STIMULANTS” (ADAM MICKIEWICZ UNIVERSITY FOUNDATION, priority 2015, published 2021)
Where “and” joins values, the source holds several entries; their conditions need not be identical. Equal entries are not always repeated.

Key:
[1] = tested on: tobacco mosaic virus (TMV); test: TMV-tobacco cv. xanthi model, protection against biotic stress (necrotic spots); assay type: in vivo, Nicotiana tabacum cv. xanthi; conditions: for Resistance induction [%] (Reduction of necrotic spots related to control): evaluated after another 4 days
Description: Tobacco plants (Nicotiana tabacum) cv. xanthi at the stage of three developed leaves was watered (i.e. applied to the roots) twice with BTHWA solution of 10 mg/L, in one-week intervals. Control tobacco plants were irrigated with water only. […] To assess the biological effectiveness in protecting plants against biotic stress, the TMV-tobacco cv. xanthi model was used. This pathogen-plant model includes determining the hypersensitivity interaction phenomena with formation of necrotic spots which are quantifiable.
Tobacco plants (Nicotiana tabacum) cv. xanthi at the stage of three developed leaves were sprayed once with BION™ or BTHWA solutions at a concentration of 20 mg/L. A week later, the plants were mechanically infected with TMV virus by repeatedly rubbing the leaves with carborundum steeped in a suspension of the purified virus at the concentration of approx. 2 μg/ml. The level of protection against biotic stress was assessed by comparing the number of necrotic spots caused by TMV on the leaves of plants treated by BTHWA or BION™ and compared to the control (plant sprayed with water only).
Reduction of the amount of necrotic spots indicates protection against influence of the biotic factor on the plant.
The procedure as described in Example 4 was followed, however, the treated and control plants were divided into three batches and their leaves were inoculated with a virus, respectively after 1, 2, and 3 weeks past the last treatment with BTHWA or water only.
After six days, plants treated with a solution of the working fluid at a BTHWA concentration <100 mg/L were inoculated with tobacco mosaic virus (TMV) in order to determine the degree of induction of resistance caused by the formulation. After another 4 days of infection by TMV, the level of infection was evaluated by determining the number and size of necrotic spot caused by viral disease oi the plant leaves relative to the control.
Research on the durability of the induced resistance effect on the model of tobacco plants against TMV virus was performed. […] The group of plants were then infected with the virus after 1, 3, 6, 10, 15, 20, 25 and 30 days (Table 3).

[2] = tested on: Nicotiana tabacum var. xanthi; test: Phytotoxicity of BTHWA spray on tobacco under greenhouse conditions; conditions: 5 to 1000 mg/L tested
Description: Experiments were carried out on a model tobacco plant (Nicotiana tabacum var. xanthi) under greenhouse conditions, where the plant was in the three-developed leaves phase. The plants were sprayed (with full coverage of the leaves surface) with a solution of a working fluid having a concentration of active substance (BTHWA) starting from 5 and ending at 1000 mg/L The phytotoxicity of the BTHWA was evaluated.

Tobacco plants = test: Protection against abiotic stress in tobacco caused by lack of water; assay type: in vivo; conditions: watered twice 20 mg/L; 10 days after cessation of watering
Description: Tobacco plants at the stage of 3 developed leaves were watered twice with BTHWA at concentration of 20 mg/L, at a weekly intervals. Control […] plants were watered with water only. A week after the second treatment, plants were exposed to a stress factor in the form of lack of access to water.

Tomato plants = test: Protection against abiotic stress in tomato caused by lack of water; assay type: in vivo; conditions: watered twice 20 mg/L; 10 days after cessation of watering
Description: Tomato plants in the phase of first pair of developed true leaves were watered twice with BTHWA at concentration of 20 mg/L, at a weekly intervals. Control tomato plants were treated with water only. A week after the second treatment, plants were exposed to a stress factor in the form of lack of access to water.

potato virus Y (PVY) = test: Field experiment on potato, PVY infection of tubers by DAS ELISA; assay type: in vivo, potato variety Altesse; conditions: for % of tubes infected by PVY Virus: field
Rhynchosporium secalis = test: Field test on barley, fungal infection by Rhynchosporium secalis; assay type: in vivo, Hordeum vulgare (spring); conditions: Example 28: BTHWA 20 mg/L with Trend 90 EC, six foliar applications at 10 days intervals; harvested 13 days after last treatment
Description: The test was on a variety of barley Hordeum vulgare (spring). There were six applications of the active substance solution. The study was conducted on fields of about 25 m^2 in quadruplicate for each combination tested.

[3] = tested on: tobacco mosaic virus (TMV); test: BTHWA effect on the infectivity of tobacco mosaic virus (virus pre-incubated with compound, necrotic spots on tobacco leaves); assay type: in vivo, tobacco cv. xanthi; conditions: TMV approx. 3 μg/ml incubated 30 min with BTHWA 40 mg/L 1:1; after 5 days
Description: Purified tobacco mosaic virus (TMV) at a concentration of approx. 3 μg/ml was mixed with N-methyl-N-methoxy-7-carboxybenzo[1,2,3]thiadiazole amide (BTHWA) formulation (concentration 40 mg/L) in a 1:1 volume ratio and incubated for 30 min at room temperature (treated leaves). The control was TMV incubated in water. Both virus suspensions were used to mechanically infect tobacco leaves cv. xanthi. Local necrotic spots (hypersensitivity, local infection) produced on the tobacco leaves were measured.

[4] = watered once with 100 ml of 20 mg/L

Structure (SMILES): CON(C)C(=O)c1cccc2nnsc12 [BTHWA, N-methyl-N-methoxy-7-carboxybenzo[1,2,3]thiadiazole amide]
- Resistance induction [%] (Reduction of necrotic spots related to control) ([1]; spray 5 mg/L, TMV inoculation after six days): 85%
- Resistance induction [%] (Reduction of necrotic spots related to control) ([1]; spray 10 mg/L, TMV inoculation after six days): 97%
- Resistance induction [%] (Reduction of necrotic spots related to control) ([1]; spray 20 mg/L, TMV inoculation after six days): 97%
- Resistance induction [%] (Reduction of necrotic spots related to control) ([1]; spray 50 mg/L, TMV inoculation after six days): 98%
- lowest possible concentration at which the efficiency is maintained at greater than 90% ([1]; spray, TMV inoculation after six days): 10 mg/L
- effectiveness in preventing biotic stress compared with BION ([1]; sprayed once, 20 mg/L): more effective in preventing the occurrence of biotic stress
- Average number of the local necrotic spots per leaf ([1]; sprayed once, 20 mg/L, TMV infection a week later): 0
- Reduction of necrotic spots [%] ([1]; sprayed once, 20 mg/L, TMV infection a week later, vs control): 100%
- persistence of the resistance effect after a single application [1, 4]: up to 25 days
- time to activation of resistance after application [1, 4]: after at least three days
- % of induction (reduction of necrotic spots related to control) ([1]; watered once with 100 ml of 20 mg/L, virus inoculation 1 day after application): <10%
- % of induction (reduction of necrotic spots related to control) ([1]; watered once with 100 ml of 20 mg/L, virus inoculation 3 days after application): 10-20%
- % of induction (reduction of necrotic spots related to control) ([1]; watered once with 100 ml of 20 mg/L, virus inoculation 6 days after application): 94%
- % of induction (reduction of necrotic spots related to control) ([1]; watered once with 100 ml of 20 mg/L, virus inoculation 10 days after application): 96%
- % of induction (reduction of necrotic spots related to control) ([1]; watered once with 100 ml of 20 mg/L, virus inoculation 15 days after application): 95%
- % of induction (reduction of necrotic spots related to control) ([1]; watered once with 100 ml of 20 mg/L, virus inoculation 20 days after application): 95%
- % of induction (reduction of necrotic spots related to control) ([1]; watered once with 100 ml of 20 mg/L, virus inoculation 25 days after application): 91%
- % of induction (reduction of necrotic spots related to control) ([1]; watered once with 100 ml of 20 mg/L, virus inoculation 30 days after application): 85%
- protection against biotic stress (number of necrotic spots vs control) ([1]; watered twice with 10 mg/L at one-week intervals, TMV infection a week after second treatment): restricts the influence of biotic factor
- durability of protection against TMV biotic stress ([1]; watering 10 mg/L twice, inoculation 1, 2 and 3 weeks after last treatment): effective after three weeks
- concentration in the working fluid at which phytotoxic effects were observed (yellowing of the leaves, necrosis of leaves, growth inhibition) [2]: above 100 mg/L
- total mass of the untreated plants lower than the weight of the treated plants (Tobacco plants): 13%
- total mass of the untreated plants lower than the weight of the treated plants (Tomato plants): 10%
- reduction in the amount of PVY virus occurrence in the treated plants (potato virus Y (PVY); foliar application 20 mg/L of operational fluid, field conditions): ~50%
- % of tubes infected by PVY Virus (potato virus Y (PVY); foliar application 20 mg/L with mineral oil adjuvant, 7 days intervals): 44.2%
- % of tubes infected by PVY Virus (potato virus Y (PVY); tuber dressing 20 mg/L + foliar application 20 mg/L): 40.7%
- % of infection (Rhynchosporium secalis): 10% and 10.63%
- difference in number of necrotic spots between control and treated leaves [3]: 12%
